Data as given in patent US20080221134A1, “8-ALKYNYLXANTHINES AND DERIVATIVES” (priority 2006, published 2008).

Experiments:
[1] = target: T1, A2A adenosine receptors from rat striatum (Rattus norvegicus, UniProt P30543); experiment: Sodium chloride-shift experiment; type: binding; conditions: for Sodium Chloride-Shift Ki (+NaCl)/Ki (−NaCl): ratio
T1 construct: A2A adenosine receptors from rat striatum; from tissue; host or cells: rat striatum
Procedure: The compounds were tested in a sodium chloride-shift experiment of whether they are functionally coupled to A2A adenosine receptors from rat striatum. […] The presence of a relatively high concentration of sodium chloride should not influence the affinity of the antagonists. However, the affinity of A2A AR agonists should be attenuated and therefore lead to an elevated IC50-value. […] This confirms the A2A-antagonistic function of the compounds. (Gao et al, Biochem. Pharmacol., 2000, 60, 669, herein incorporated by reference).

Adenosine A2A = Adenosine A2A (Homo sapiens, UniProt P29274); experiment: Functional assay (luciferase reporter), inhibition of A2A adenosine receptor; type: cell-based; design: expressed in transfected cells; host or cells: CHO-DUKX-CRE-A2A-19 (CHO-DUKX, vector pCineo); conditions: for IC50: CHO-DUKX-CRE-A2A-19 cells, 60 nM NECA, read-out: A2A AR IC50; for A2A AR Imax: Imax in % of the corresponding antagonist; for Ki: Ki=IC50/(1+agonist concentration/EC50), read-out: A2A AR Ki
Adenosine A2A, sequence (P29274 whole entry): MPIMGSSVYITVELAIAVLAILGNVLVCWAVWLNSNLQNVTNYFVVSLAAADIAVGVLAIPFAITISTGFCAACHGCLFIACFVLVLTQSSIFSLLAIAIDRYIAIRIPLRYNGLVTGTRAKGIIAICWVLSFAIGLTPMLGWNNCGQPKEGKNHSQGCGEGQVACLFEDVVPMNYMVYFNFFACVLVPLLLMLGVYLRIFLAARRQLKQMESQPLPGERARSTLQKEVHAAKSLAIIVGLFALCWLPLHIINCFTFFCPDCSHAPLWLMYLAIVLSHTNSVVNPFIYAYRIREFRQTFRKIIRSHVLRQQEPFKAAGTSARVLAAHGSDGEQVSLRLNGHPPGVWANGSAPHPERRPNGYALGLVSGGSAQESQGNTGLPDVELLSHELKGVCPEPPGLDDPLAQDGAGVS

Adenosine A1 = target: T2, Adenosine A1 (Homo sapiens, UniProt P30542); experiment: Functional assay (luciferase reporter), inhibition of A1 adenosine receptor; type: cell-based; design: expressed in transfected cells; host or cells: CHO-DUKX-SRE-Luci-A1-44 (CHO-DUKX, vector pCineo); conditions: for IC50: read-out: A1 AR IC50; for A1 AR Imax: Imax in % of the corresponding antagonist (CPX); for Ki: read-out: A1 AR Ki
T2 sequence (P30542 1-326): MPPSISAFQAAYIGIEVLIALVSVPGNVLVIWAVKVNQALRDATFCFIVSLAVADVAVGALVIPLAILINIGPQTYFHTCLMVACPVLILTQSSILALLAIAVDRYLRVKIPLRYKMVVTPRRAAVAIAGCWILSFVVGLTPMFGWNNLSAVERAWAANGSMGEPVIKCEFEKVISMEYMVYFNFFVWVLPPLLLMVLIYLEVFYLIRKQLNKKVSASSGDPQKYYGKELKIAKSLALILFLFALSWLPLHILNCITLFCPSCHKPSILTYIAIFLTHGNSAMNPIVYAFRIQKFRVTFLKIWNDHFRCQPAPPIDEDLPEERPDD

[2] = tested on: Reserpine induced catalepsy; experiment: Acute Reserpine induced catalepsy test; type: in vivo, rat; conditions: vs only Reserpine-treated animals
Procedure: (§1) Animals were administered with Reserpine or CGS-21680 according to methods known to the skilled person in the art. These models and procedures are e.g. described by Ferré S. et al., Neurosci. Let., 1991, 130, 162; Ferré S. et al., Neuroscience, 1992, 51, 501; Kafka S. H. et al., Eur. J. Pharmacol., 1996, 295, 147; Rimondini R. et al., Neuropsychopharmacology, 1997, 17, 82 and are herein incorporated by reference. In the acute CGS-21680 induced catalepsy model (CGS model) the test compounds (TC, compounds according to the present invention) and CGS-21680 (i.p. 2 mg/kg) were administered 60 minutes before the start of the catalepsy bar measurement and behavioural testing described below (see also FIG. 1). In the acute Reserpine induced catalepsy model (RES model Resperine (subcutaneously, 3 mg/kg) was injected 24 h prior to the test compound application. Catalepsy bar measurement took place 60 minutes after test compound application (see FIG. 1). Test compounds were administered i.p. in DMSO in following doses (mg/kg): 0.1, 0.3, 1, 3, 10.
(§2) Dimethylsulfoxide (DMSO) was used as vehicle for the test compounds and Reserpine. Reserpine was dissolved in DMSO in a concentration of 3 mg/ml. A 10% (w/v) Cyclodextrin solution was used as vehicle for CGS-21680. CGS 21680 was dissolved in 10% (w/v) Cyclodextrine in a concentration of 2 mg/ml.
Apomorphine was used as a reference compound in the Reserpine induced catalepsy model. Apomorphine injection solution was diluted with purified water to a concentration of 0.3 mg/ml. The solution was administered subcutaneously (s.c.) in a volume of 1 ml/kg (0.3 mg/kg) 20 minutes before the begin of testing after Reserpine pre-treatment (25 hours prior to testing).
The catalepsy bar after Reserpine administration was measured (CAT) as follows: The rat was placed with its forepaws on a log of wood. […] The animal was tested for three trials and the time for each trial was noted. The following parameters were calculated: maximum time to descend (s) and median time to descend (s). […]
(§3) All statistical tests were performed two tailed with a value of p<0.05 considered as significant.
(§4) To assess the effects of CGS-21680 and Reserpine pre-treatment compared to vehicle treated controls statistical comparisons between the test groups were performed using a U test statistic.
To assess the effects of test compounds on CGS-21680 and Reserpine pre-treated animals correlation analyses including animals from test groups and the respective test compound-treated groups were performed.
Additionally, parametric and non-parametric comparisons for the median catalepsy measure were performed to assess the reliability of the method. In case of parametric testing a GLM analyses was performed including animals from a control group (only vehicle treated animals) and the respective test compound-treated groups with dose as a categorical factor. In case of a significant result, a Dunnett's post hoc test was performed between the according test compound groups and a control group as reference group. In case of non-parametric testing a Kruskal-Wallis H-test was performed including animals from a control group and the respective test compound groups. In case of a significant result single U-test comparisons were performed between a control group and the groups treated with different doses of the test compound.

[3] = tested on: CGS-21680 induced catalepsy; experiment: Acute CGS-21680 induced catalepsy test; type: in vivo, rat; conditions: vs only CGS-21680-treated animals
Procedure: as §1, §2
Caffeine was used as a reference compound in the CGS-21680 induced catalepsy model. A caffeine solution was prepared with water for injection purposes to a concentration of 30 mg/ml. The solution was administered intraperitoneally in a volume of 1 ml/kg (30 mg/kg) 30 minutes before the beginning of testing and after CGS-21680 pre-treatment (1 hour prior to testing).
The catalepsy bar after CGS-21680 administration was measured (CAT) as follows: The rat was placed with its forepaws on a log of wood. […] If the animal descended faster than 1 second, the trial was regarded as invalid. If more than 20 trials were rated as invalid, the values of all uncompleted trials were noted as 0. The animal was tested until five trials had been completed and the time for each trial was noted. Only the values of the last three trials were used for the analysis. The following parameters were calculated: maximum time to descend (s) and median time to descend (s).
Behavioural observation (BO) included the measurement of the body tone, inclined plane and grip strength.
The rat is taken in the hand of the observer and the animal's body tone is rated as normal, soft or hard. The rating is performed immediately after taking the animal from its home cage before performance of catalepsy testing. The following parameters were calculated: mean occurrence of hard body tone and mean occurrence of soft body tone.
The rat is horizontally placed to an inclined plane for a maximum time of 30 seconds. Time to reach bottom or top is measured. […] The test is performed after catalepsy testing. Time to leave the inclined plane(s) was measured.
The rat is put on a grip and the observer pulls the animal back on his tail. The strength (fore paws and hind paws) by which it holds on the grid is scored as grasping and pulling, grasping without pulling or no grasping. The test is performed after the inclined plane test. The following parameters were calculated: mean score of fore paw grip strength and mean score of hind paw grip strength.
as §3, §4
To assess the effects of test compounds on CGS-21680 and Reserpine pre-treated animals correlation analyses including animals from test groups and the respective test compound-treated groups were performed. […]

[4] = Ki (+100 mM NaCl) rA2A rat striatum [3H] MSX-2 (n = 3), +100 mM NaCl
[5] = Ki rA2A rat striatum [3H] MSX-2 (n = 3), without NaCl
[6] = CHO-DUKX-SRE-Luci-A1-44 cells, 3.5 μM ADAC
[7] = Ki=IC50/(1+agonist concentration/EC50)

T1 sequence (P30543 whole entry): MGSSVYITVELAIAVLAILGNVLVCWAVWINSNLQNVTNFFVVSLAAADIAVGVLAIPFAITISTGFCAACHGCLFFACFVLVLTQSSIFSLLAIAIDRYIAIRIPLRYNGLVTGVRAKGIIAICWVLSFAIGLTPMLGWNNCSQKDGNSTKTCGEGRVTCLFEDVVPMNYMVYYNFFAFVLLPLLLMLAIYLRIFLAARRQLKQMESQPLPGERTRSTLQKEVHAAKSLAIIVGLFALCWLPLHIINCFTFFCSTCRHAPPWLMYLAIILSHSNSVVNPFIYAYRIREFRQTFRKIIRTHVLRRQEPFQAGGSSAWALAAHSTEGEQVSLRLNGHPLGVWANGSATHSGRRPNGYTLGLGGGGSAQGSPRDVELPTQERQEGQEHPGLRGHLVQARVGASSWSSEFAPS

Row | Ki [1, 4] [nM] | Ki [1, 5] [nM] | Sodium Chloride-Shift Ki (+NaCl)/Ki (−NaCl) [1] | IC50 (Adenosine A2A) [nM] | A2A AR Imax (Adenosine A2A) [%] | Ki (Adenosine A2A) [nM] | IC50 (Adenosine A1; [6]) [nM] | A1 AR Imax (Adenosine A1) | Ki (Adenosine A1; [7]) [nM] | SMILES | also measured
1 | 53.1 ± 5.9 | 43.4 ± 11.6 | 1.19 ± 0.16 | – | – | – | – | – | – | C#CCn1c(=O)c2c(nc(C#Cc3cccc(C)c3)n2C)n(C)c1=O [drawing 615] | –
2 | 39.5 ± 13.1 | 46 ± 9 | 0.82 ± 0.13 | – | – | – | – | – | – | C#CCn1c(=O)c2c(nc(C#Cc3cccc(Cl)c3)n2C)n(C)c1=O [drawing 616] | –
3 | – | – | – | 300 | 117 | 26 | 1800 | 92% | 401 | C#CCn1c(=O)c2c(nc(C#Cc3ccc(OC)c(OC)c3)n2C)n(CCCO)c1=O [drawing 622] | –
4 | – | – | – | – | – | – | – | – | – | CN1CCc2cccc3c2[C@H]1Cc1ccc(O)c(O)c1-3 [apomorphine, Apomorphine, reference compound] | maximum catalepsy values after Reserpine treatment [2]: decreased; median catalepsy values after Reserpine treatment [2]: decreased
5 | – | – | – | 400 | 109 | 40 | 1300 | 102% | 289 | C#CCn1c(=O)c2c(nc(C#Cc3cccc(C)c3)n2C)n(CCCO)c1=O [drawing 623] | –
6 | – | – | – | 900 | 117 | 82 | 1700 | 90% | 370 | C#CCn1c(=O)c2c(nc(C#Cc3cccc(OC)c3)n2C)n(CCCO)c1=O [drawing 620] | –
7 | – | – | – | – | – | – | – | – | – | Cn1c(=O)c2c(ncn2C)n(C)c1=O [caffeine, 1,3,7-trimethylxanthine, reference compound] | hard body tone after CGS-21680 treatment [3]: increased; maximum catalepsy values after CGS-21680 treatment [3]: significantly decreased; median catalepsy values after CGS-21680 treatment [3]: significantly decreased; soft body tone after CGS-21680 treatment [3]: decreased
8 | – | – | – | 600 | 95 | 58 | – | Nosignificantactivitydetected | – | C#CCn1c(=O)c2c(nc(C#Cc3ccc(OC)c(OC)c3)n2C)n(C)c1=O [drawing 619] | A1 AR IC50 (Adenosine A1; [6]): Nosignificantactivitydetected; A1 AR Ki (Adenosine A1; [7]): Nosignificantactivitydetected
9 | 33.2 ± 9.9 | 30.9 ± 8 | 0.97 ± 0.03 | – | – | – | – | – | – | C#CCn1c(=O)c2c(nc(C#Cc3cccc(OC)c3)n2C)n(C)c1=O [drawing 614] | –
